The record followed here is patent US10010560B2, “Small molecule HSP70 inhibitors” (THE TRUSTEES OF THE UNIVERSITY OF PENNSYLVANIA, priority 2014, dated 2018).

One series addresses T1, ADP-HSP70 (WT, aa 1-641) (Homo sapiens, UniProt P0DMV8, E110D).
T1 construct: Full-length recombinant proteins of HSP70 (aa 1-641) as well as DnaK (aa 1-638); His6 (N); made in house; host or cells: E. coli BL21 Star (DE3)
Kind of series: ITC binding to ADP-bound full-length HSP70. The text has this:
The human stress-inducible HSP70 (residues 1-641 or 386-616 of SEQ ID NO: 2) and E. coli DnaK (residues 1-638, 389-607, or 393-507 of SEQ ID NO: 4) were cloned into the pET25 vector (EMD Millipore Chemicals, Inc., Billerica, Mass., USA) between the NdeI and XhoI restriction sites. The full-length HSP70 and DnaK mutants were constructed by PCR-based site-directed mutagenesis using the QuikChange™ Site-Directed Mutagenesis Kit (Agilent Technologies, Inc., Santa Clara, Calif., USA). All plasmid inserts were verified by DNA sequencing. All HSP70 and DnaK variants were produced with a N-terminal His6-tag in the E. coli BL21 Star (DE3) strain (Invitrogen catalog number C6010-03). The resulting strains were grown at 37° C. in LB medium containing 50 μg/mL of carbenicillin (Sigma-Aldrich Co., St. Louis, Mo., USA). At an OD600 about 0.3 to about 0.5, protein expression was induced with 0.5 mM isopropyl-β-D-thiogalactopyranoside (IPTG), and cells were subsequently grown at 25° C. for about 16 h. Cells were collected by centrifugation and resuspended in the Bugbuster® Master Mix (EMD Millipore Chemicals catalog number 71456-4), supplemented with protease inhibitors, 1 mM diethiothreitol (DTT) and 20 mM imidazole. The His6-tagged fusion proteins were isolated on Ni^2+-chelating resins (Ni-NTA Superflow, Qiagen catalog number 30410) by standard procedures. When necessary, size-exclusion chromatography on a Superdex® 200 or a Superose® 6 10/300 GL columns (GE Healthcare) analytical column pre-equilibrated with 1× Dulbecco's Phosphate Buffered Saline (DPBS—Invitrogen 14190-136), 1 mM Tris-HCl (pH 7.4) or 10 mM Tris-HCl (pH 7) was used as the final purification step. The purified DnaK proteins were dialyzed thoroughly against 1× DPBS with 5 mM DTT at 4° C., for crystallization trials involving the small molecule inhibitor PET-16. For isothermal titration calorimetry studies, all HSP70 and DnaK variants were dialyzed extensively against the buffers as noted below under the section entitled “Isothermal Titration calorimetry Studies”. The dialyzed proteins were subsequently microcentrifugated at 15,000×g for 5 min at 4° C. and aliquots of the soluble proteins were stored at −80° C.
All ITC experiments were performed using a MicroCal VP-ITC isothermal titration calorimeter (MicroCal). Both full-length HSP70 and DnaK proteins and DnaK (aa 393-507) proteins were prepared in 1 mM Tris-HCl (pH 7.4) buffer containing 3% dimethylsulfoxide (DMSO). The HSP70 (aa 386-616) protein was prepared in buffer containing 3% DMSO and 10 mM Tris-HCl, pH 7. The syringe was loaded with purified protein in either 1 mM Tris-HCl (pH 7.4) buffer containing 3% DMSO or 10 mM Tris-HCl (pH 7) buffer containing 3% DMSO. The sample cell of the calorimeter was loaded with PES, PET-16 or NRLLLTG (SEQ ID NO: 7) prepared in the same buffer. All solutions were degassed for 5 min.
The titrations involving the full-length purified proteins were performed at 25° C. with injection volumes of 12 μL and a spacing of 300 s. The titrations involving the purified HSP70 (aa 386-616) and DnaK (aa 393-507) were performed at 42° C. with injection volumes of 12 μL and a spacing of 300 s. Heat from the pre-injection was not used during fitting. The data were fit using a one-site binding model available in the Origin® ITC data analysis software (MicroCal Origin® V5.0, MicroCal Software, Northampton, Mass.). Error values obtained from the MicroCal Origin® V5.0 software were averaged and reported. […]

The target in the next series is T2, ATP-HSP70 (WT) (Homo sapiens, UniProt P0DMV8, E110D).
T2 construct: Full-length recombinant proteins of HSP70 (aa 1-641) as well as DnaK (aa 1-638); His6 (N); made in house; host or cells: E. coli BL21 Star (DE3)
T2 sequence (P0DMV8 whole entry E110D, the tested form may be a part): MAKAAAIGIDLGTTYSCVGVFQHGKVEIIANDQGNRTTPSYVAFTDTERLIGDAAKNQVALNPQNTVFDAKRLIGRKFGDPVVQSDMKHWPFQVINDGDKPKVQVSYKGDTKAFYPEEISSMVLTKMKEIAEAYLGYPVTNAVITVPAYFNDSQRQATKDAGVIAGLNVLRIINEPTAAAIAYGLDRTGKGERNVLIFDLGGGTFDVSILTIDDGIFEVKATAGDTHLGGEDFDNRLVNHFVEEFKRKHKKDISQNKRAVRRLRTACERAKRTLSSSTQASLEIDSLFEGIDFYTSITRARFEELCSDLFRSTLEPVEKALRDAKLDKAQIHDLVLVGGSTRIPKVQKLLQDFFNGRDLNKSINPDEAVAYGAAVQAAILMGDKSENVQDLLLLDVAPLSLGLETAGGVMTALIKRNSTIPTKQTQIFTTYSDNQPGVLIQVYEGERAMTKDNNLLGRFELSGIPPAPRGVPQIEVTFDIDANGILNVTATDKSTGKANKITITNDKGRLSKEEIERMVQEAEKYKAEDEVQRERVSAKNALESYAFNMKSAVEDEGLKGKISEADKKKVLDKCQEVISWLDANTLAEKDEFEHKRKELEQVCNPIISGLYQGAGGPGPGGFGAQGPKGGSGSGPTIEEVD
Kind of series: ITC binding to ATP-bound full-length HSP70. The text has this: The human stress-inducible HSP70 (residues 1-641 or 386-616 of SEQ ID NO: 2) and E. coli DnaK (residues 1-638, 389-607, or 393-507 of SEQ ID NO: 4) were cloned into the pET25 vector (EMD Millipore Chemicals, Inc., Billerica, Mass., USA) between the NdeI and XhoI restriction sites. The full-length HSP70 and DnaK mutants were constructed by PCR-based site-directed mutagenesis using the QuikChange™ Site-Directed Mutagenesis Kit (Agilent Technologies, Inc., Santa Clara, Calif., USA). All plasmid inserts were verified by DNA sequencing. All HSP70 and DnaK variants were produced with a N-terminal His6-tag in the E. coli BL21 Star (DE3) strain (Invitrogen catalog number C6010-03). The resulting strains were grown at 37° C. in LB medium containing 50 μg/mL of carbenicillin (Sigma-Aldrich Co., St. Louis, Mo., USA). At an OD600 about 0.3 to about 0.5, protein expression was induced with 0.5 mM isopropyl-β-D-thiogalactopyranoside (IPTG), and cells were subsequently grown at 25° C. for about 16 h. Cells were collected by centrifugation and resuspended in the Bugbuster® Master Mix (EMD Millipore Chemicals catalog number 71456-4), supplemented with protease inhibitors, 1 mM diethiothreitol (DTT) and 20 mM imidazole. The His6-tagged fusion proteins were isolated on Ni^2+-chelating resins (Ni-NTA Superflow, Qiagen catalog number 30410) by standard procedures. When necessary, size-exclusion chromatography on a Superdex® 200 or a Superose® 6 10/300 GL columns (GE Healthcare) analytical column pre-equilibrated with 1× Dulbecco's Phosphate Buffered Saline (DPBS—Invitrogen 14190-136), 1 mM Tris-HCl (pH 7.4) or 10 mM Tris-HCl (pH 7) was used as the final purification step. The purified DnaK proteins were dialyzed thoroughly against 1× DPBS with 5 mM DTT at 4° C., for crystallization trials involving the small molecule inhibitor PET-16. For isothermal titration calorimetry studies, all HSP70 and DnaK variants were dialyzed extensively against the buffers as noted below under the section entitled “Isothermal Titration calorimetry Studies”. […]

Another series deals with Cyclophilin D (Cyp-D). Kind of series: Purified mitochondria from H1299 cells, western blot for Cyp-D. It counts as cell-based. From the text:
FIGS. 5A-5F illustrates that PET-16 leads to loss of mitochondrial protein Cyclophilin D and impairs bioenergetics in tumor cells. FIGS. 5A-5D are western blots of HSP70, which is present at mitochondria of tumor H1299 cells but not in normal tissue, such as liver. The constitutively expressed 70 kDa family members, HSC70 and GRP75, are present in mitochondria of normal cells. Equal amounts of whole cell (WC)-, cytosolic (cyto)-, and mitochondrial (mito)-extracts prepared from cell lines H1299 (A, C) and MIA PaCa-2 (B) or normal (liver) cells (C, D) were examined by western blot analysis for the presence of the proteins indicated. […] Decreases of AlamarBlue® fluorescence, indicative of mitochondrial damage, are noted in PET-16-treated tumor cells (melanoma tumor cell line WM88 (-), melanoma tumor cell line WM3000 (×), melanoma tumor cell line WM852 (*), human melanoma 451 Lu cells (●), and melanoma tumor cell line WM989 (|), but not normal cells (nontransformed human fibroblasts (IMR90-♦) and primary melanocytes (▪)). Values are normalized to the vehicle-treated cells. Error bars represent standard deviation (s.d.) of four independent experiments. […]
(Immunoblotting shows a protein as a band on a membrane.)

Where [1] appears, read: ITC, wild-type full-length ADP-bound HSP70.

T1 sequence (P0DMV8 whole entry E110D, the tested form may be a part): as above

Usually Kd stands for the equilibrium constant for the complex coming apart. As to `NS(=O)(=O)C#Cc1ccccc1` [PES, 2-Phenylethynesulfonamide, reference compound], at ADP-HSP70 (WT, aa 1-641) (setting [1]), the Kd is approximately 5.7 µM. At ATP-HSP70 (WT) (in words), the “interaction with ATP-bound HSP70” value is “notably reduced”. Further, the “abundance of Cyp-D in the soluble-protein fraction” value in the series on Cyclophilin D (Cyp-D) is “not”.
`C(#C[P+](c1ccccc1)(c1ccccc1)c1ccccc1)c1ccccc1.[Br-]` [PET-16, triphenyl(phenylethynyl)phosphonium bromide]: the equilibrium dissociation constant (Kd) is approximately 3.8 µM at ADP-HSP70 (WT, aa 1-641) (setting [1]); 3.8 µM at ADP-HSP70 (WT, aa 1-641) (dimeric ADP-bound HSP70 (N=0.5)); 1.3 µM at ADP-HSP70 (WT, aa 1-641) (tetrameric ADP-bound HSP70 (N=0.25)); 130 ± 8.3 µM at ATP-HSP70 (WT) (wild-type full-length ATP-bound HSP70). For the same compound, in the series on Cyclophilin D (Cyp-D), the “abundance of Cyp-D in the soluble-protein fraction” value is listed as “significantly reduced”.
